Laboratory results reported in PMC7932537, “Quantitative profiling of protease specificity” (PLoS Computational Biology, 2021).

Tests used:
[1] = system: MMP-2; assay: Substrate phage display with NGS: relative probability (RP) of P3-P1' tetramer clusters; assay type: biochemical, human; settings: MMP2;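 further: ratio of tetramer probability after protease selection to that in naive phage library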
[2] = target: T1, MMP-2 (Homo sapiens, UniProt P08253); assay: K(obs) of individual phage substrates (set of 1369); assay type: biochemical; settings: MMP2
T1 sequence (P08253 110-660): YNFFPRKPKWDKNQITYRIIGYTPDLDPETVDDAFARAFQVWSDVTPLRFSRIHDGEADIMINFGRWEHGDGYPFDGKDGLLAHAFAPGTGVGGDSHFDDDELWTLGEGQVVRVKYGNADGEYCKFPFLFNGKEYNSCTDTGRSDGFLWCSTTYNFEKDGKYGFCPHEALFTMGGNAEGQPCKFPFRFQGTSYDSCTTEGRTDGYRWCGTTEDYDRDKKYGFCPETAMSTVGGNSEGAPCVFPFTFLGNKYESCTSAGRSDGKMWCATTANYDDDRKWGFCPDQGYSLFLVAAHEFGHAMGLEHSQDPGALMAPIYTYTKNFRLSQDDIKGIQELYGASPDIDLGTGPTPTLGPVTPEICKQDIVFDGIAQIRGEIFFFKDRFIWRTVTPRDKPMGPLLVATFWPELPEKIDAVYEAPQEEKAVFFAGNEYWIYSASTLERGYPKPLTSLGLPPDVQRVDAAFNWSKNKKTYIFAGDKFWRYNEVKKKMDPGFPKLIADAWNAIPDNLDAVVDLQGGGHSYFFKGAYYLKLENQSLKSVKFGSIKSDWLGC

[3] = target: MMP-9 (Homo sapiens, UniProt P14780); assay: as above; assay type: biochemical; settings: MMP9
MMP-9, sequence (P14780 94-707): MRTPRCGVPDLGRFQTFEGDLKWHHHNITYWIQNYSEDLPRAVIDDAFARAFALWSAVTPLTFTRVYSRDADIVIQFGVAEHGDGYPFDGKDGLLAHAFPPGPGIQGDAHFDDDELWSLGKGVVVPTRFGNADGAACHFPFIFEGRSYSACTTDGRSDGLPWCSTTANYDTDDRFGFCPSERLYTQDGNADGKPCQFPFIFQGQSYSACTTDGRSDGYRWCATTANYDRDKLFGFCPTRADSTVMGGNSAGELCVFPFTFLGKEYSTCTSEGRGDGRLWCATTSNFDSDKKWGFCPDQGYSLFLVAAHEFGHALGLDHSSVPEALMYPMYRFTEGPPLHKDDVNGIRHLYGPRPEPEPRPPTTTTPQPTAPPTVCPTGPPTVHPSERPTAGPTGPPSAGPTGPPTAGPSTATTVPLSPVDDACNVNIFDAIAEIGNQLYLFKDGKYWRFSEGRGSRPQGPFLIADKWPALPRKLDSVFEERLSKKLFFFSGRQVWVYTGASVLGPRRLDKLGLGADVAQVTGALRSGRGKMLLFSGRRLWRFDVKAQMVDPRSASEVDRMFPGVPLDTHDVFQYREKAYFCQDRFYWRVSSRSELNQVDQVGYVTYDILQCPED

[4] = RP of the P3-P1' tetramer contained in the substrate
[5] = individual phage substrate of the set of 1369 peptides, cleavage position marked by '-'
[6] = individual phage substrate of the set of 1369 peptides, dash in the sequence marks the cleavage position
[7] = RP of the P3-P1' tetramer contained in the substrate (substrate phage display with NGS)
[8] = individual phage substrates, set of 1369 peptides, cleavage position marked by hyphen in sequence
[9] = individual phage substrates, set of 1369 peptides, hyphen in sequence marks cleavage position

Row | Substance | Kobs [2, 5] [M⁻¹ s⁻¹] | Kobs [3, 6] [M⁻¹ s⁻¹] | Kobs [2, 8] [M⁻¹ s⁻¹] | Kobs [3, 9] [M⁻¹ s⁻¹] | relative probability (RP) [1, 4] | relative probability (RP) [1, 7]
1 | QAPMG-LTASG | 3438.54 | 9740.44 | – | – | 34.7865 | –
2 | SQPIH-MTASG | 2097.28 | 6688.74 | – | – | 18.8886 | –
3 | GMVFS-IYTAS | 690.17 | 2097.28 | – | – | 0.2237 | –
4 | SQVRF-LTASG | 8321.48 | 6688.74 | – | – | 15.0438 | –
5 | KSPLG-LTASG | – | – | 4470.66 | 10866.7 | – | 35.3536
6 | GSLAH-LTASG | 12792.1 | 0 | – | – | 32.813 | –
7 | VLWAG-LTASG | – | – | 12792.1 | 3344.37 | – | 28.1709
8 | KSPVF-LTASG | 9740.44 | 6688.74 | – | – | 21.7568 | –
9 | AAWAS-ITASG | 6396.07 | 0 | – | – | 12.5247 | –
10 | VLPEP-LTASG | 8941.32 | 6396.07 | – | – | 26.8179 | –
11 | SGPFH-LSRTA | – | – | 84.609 | 2280.5 | – | 23.4724
12 | SGGSG-LRILQ | 0 | 0 | – | – | 1.9698 | –
13 | SGPRP-LYHTA | – | – | 12792.1 | 12792.1 | – | 34.3303
14 | PRVHH-LTASG | 6396.07 | 2615.58 | – | – | 14.1228 | –
15 | SGPAY-WRTTA | – | – | 12792.1 | 1610.61 | – | 27.2209
16 | GTPYP-LRTAS | – | – | 12792.1 | 12792.1 | – | 30.8058
17 | HRHAH-LTASG | 7015.91 | 0 | – | – | 20.0775 | –

Row | Substance | Kobs [2, 5] [M⁻¹ s⁻¹] | Kobs [3, 6] [M⁻¹ s⁻¹] | Kobs [2, 8] [M⁻¹ s⁻¹] | Kobs [3, 9] [M⁻¹ s⁻¹] | relative probability (RP) [1, 4] | relative probability (RP) [1, 7]
18 | YDTQH-LTASG | – | – | 0 | 0 | – | 2.922
19 | YCSLP-LTASG | – | – | 451.441 | 113.394 | – | 8.6373
20 | MKWAA-YTASG | 12792.1 | 585.336 | – | – | 15.6012 | –
21 | GHVRH-LLTAS | 2545.25 | 386.839 | – | – | 25.4239 | –
22 | WDALG-ITASG | 3850.82 | 2097.28 | – | – | 18.2164 | –
23 | RTPMA-MTASG | 2837.92 | 3637.04 | – | – | 30.2676 | –
24 | RSHAS-LTASG | – | – | 12792.1 | 0 | – | 26.2573
25 | TTLRW-WTASG | – | – | 1816.46 | 690.17 | – | 6.313
26 | RTMLH-MTASG | – | – | 619.843 | 261.974 | – | 4.713
27 | FMPRN-TASGA | 2837.92 | 12792.1 | – | – | 2.5391 | –
28 | GLLLN-MTASG | – | – | 1711.63 | 517.582 | – | 13.7728
29 | SLNRA-LTASG | 12792.1 | 4470.66 | – | – | 16.7485 | –
30 | KMPSF-LTASG | – | – | 8321.48 | 8941.32 | – | 29.537
31 | VKVFS-MTASG | – | – | 912.511 | 4470.66 | – | 2.265
32 | HRLLS-LTASG | 6688.74 | 912.511 | – | – | 2.018 | –
33 | VMLRF-LTASG | 12792.1 | 8321.48 | – | – | 10.7085 | –
34 | GGSGH-LLGMS | 2097.28 | 690.17 | – | – | 1.458 | –

More lines, main results first:

Row | Kobs [2, 5] [M⁻¹ s⁻¹] | Kobs [3, 6] [M⁻¹ s⁻¹] | Kobs [2, 8] [M⁻¹ s⁻¹] | Kobs [3, 9] [M⁻¹ s⁻¹] | Substance | relative probability (RP) [1, 4] | relative probability (RP) [1, 7]
35 | 12792.1 | 12792.1 | – | – | GRPRG-LTTAS | 35.2511 | –
36 | 4205.91 | 4470.66 | – | – | SNLNS-TASGA | 0.4784 | –
37 | 12792.1 | 12792.1 | – | – | SGPRP-LLATA | 34.3303 | –
38 | 1513.13 | 2476.66 | – | – | GSGRA-MYGTT | 2.5449 | –
39 | – | – | 4205.91 | 762.325 | GMAQY-LTASG | – | 7.443
40 | 1711.63 | 874.197 | – | – | FDAQS-LTASG | 18.365 | –
41 | – | – | 292.668 | 27.918 | SGYRS-LTLTA | – | 1.506
42 | – | – | 6688.74 | 7386.83 | AMPLH-MTASG | – | 30.0095
43 | – | – | 7386.83 | 6688.74 | SGPSG-MRVTA | – | 32.7604
44 | – | – | 1561.44 | 3438.54 | KMVYM-LTASG | – | 5.094
45 | – | – | 8321.48 | 7015.91 | RQVRY-LTASG | – | 18.3724
46 | – | – | 874.197 | 113.394 | FQFEH-LTASG | – | 1.21
47 | – | – | 113.394 | 0 | GSGQH-LRVHT | – | 1.164
48 | 12792.1 | 10866.7 | – | – | GRPRS-LTASG | 33.3704 | –
49 | 1816.46 | 654.784 | – | – | ARIEY-LTASG | 5.366 | –
50 | 726.013 | 1239.69 | – | – | ERSLN-LTASG | 3.302 | –
51 | – | – | 10866.7 | 6131.32 | NTPNW-LTASG | – | 26.5667
52 | – | – | 12792.1 | 12792.1 | SGVLG-LIGTA | – | 24.4128

Row | Kobs [2, 5] [M⁻¹ s⁻¹] | Kobs [3, 6] [M⁻¹ s⁻¹] | Kobs [2, 8] [M⁻¹ s⁻¹] | Kobs [3, 9] [M⁻¹ s⁻¹] | Substance | relative probability (RP) [1, 4] | relative probability (RP) [1, 7]
53 | – | – | 8941.32 | 7815.03 | GMAWG-LRTAS | – | 17.7408
54 | – | – | 6688.74 | 12792.1 | RGPYM-LTASG | – | 24.9477
55 | – | – | 8941.32 | 0 | LLFSQ-LTASG | – | 9.065
56 | – | – | 0 | 0 | GVYRH-MRTAS | – | 0.3212
57 | – | – | 0 | 0 | RNGLA-LTASG | – | 0.6848
58 | 12792.1 | 12792.1 | – | – | GRPAD-LRTAS | 30.0217 | –
59 | 1925.41 | 2615.58 | – | – | DAVYG-LTASG | 17.3788 | –
60 | – | – | 142.481 | 1112.44 | PRVML-LTASG | – | 0.4692
61 | – | – | 654.784 | 0 | GVLQK-LVTAS | – | 13.1993
62 | 3344.37 | 2344.36 | – | – | IDTRW-YTASG | 6.7229 | –
63 | 231.616 | 0 | – | – | GSGYH-LRHTT | 0.08149 | –
64 | 7815.03 | 12792.1 | – | – | SGPQW-ITGTA | 28.1021 | –
65 | 12792.1 | 12792.1 | – | – | MSPRW-LTASG | 34.1809 | –
66 | – | – | 12792.1 | 12792.1 | SGPLG-IKSTA | – | 33.936
67 | – | – | 0 | 201.585 | SGFRN-LRITA | – | 9.821
68 | 7815.03 | 10866.7 | – | – | MVPKW-LTASG | 29.287 | –
69 | 12792.1 | 0 | – | – | PHTAS-LTASG | 17.8872 | –
70 | – | – | 12792.1 | 56.119 | LSHAW-LTASG | – | 27.1428
